The target of the test is Chaperone protein DnaK (Escherichia coli (strain K12)) (UniProt P0A6Y8). The test is described as follows: E. coli DnaK SBD ligand binding – biophysical, NMR, chaperone (AID 1033). As to conditions: Purified DnaK SBD.

Molecules are shown by their SMILES. The source made the active and inactive calls. The rule behind the calls is not given here. Where only a bound is given, the exact number is not on record here.

Among the data in PubChem BioAssay AID1033 (Sanford-Burnham Center for Chemical Genomics, 2008) are Kd values, retold here.

Sequence of Chaperone protein DnaK (Escherichia coli (strain K12)) (P0A6Y8 whole entry, looked up): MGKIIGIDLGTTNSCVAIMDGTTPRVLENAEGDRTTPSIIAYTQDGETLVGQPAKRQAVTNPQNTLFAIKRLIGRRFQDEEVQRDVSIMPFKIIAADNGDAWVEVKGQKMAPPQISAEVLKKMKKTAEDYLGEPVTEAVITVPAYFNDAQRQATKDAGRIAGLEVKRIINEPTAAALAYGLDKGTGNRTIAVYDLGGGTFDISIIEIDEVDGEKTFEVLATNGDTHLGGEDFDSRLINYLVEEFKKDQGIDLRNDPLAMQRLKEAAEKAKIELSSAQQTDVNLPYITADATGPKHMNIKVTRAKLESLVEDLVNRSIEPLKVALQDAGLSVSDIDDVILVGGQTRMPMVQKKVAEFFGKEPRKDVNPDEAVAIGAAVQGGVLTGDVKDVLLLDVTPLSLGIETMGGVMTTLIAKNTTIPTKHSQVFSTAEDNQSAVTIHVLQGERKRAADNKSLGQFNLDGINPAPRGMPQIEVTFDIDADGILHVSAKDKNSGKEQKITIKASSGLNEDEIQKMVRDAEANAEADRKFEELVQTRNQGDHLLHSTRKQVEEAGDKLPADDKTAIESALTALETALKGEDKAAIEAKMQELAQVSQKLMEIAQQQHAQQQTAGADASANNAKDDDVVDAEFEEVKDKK

For the molecule `CC(=O)Nc1cccc(-c2n[nH]c(=S)n2C)c1`, the Kd is > 4 mM (inactive). On to `c1ccc(CCc2nc(-c3cccnc3)no2)cc1`, for which the Kd is > 4 mM (inactive). With `NC1CSCC1O` (stereo not drawn) the figure was > 4 mM (inactive). Under `CCOC(=O)C1CCN(c2ccc(C#N)cc2)CC1` stands > 4 mM (inactive).

As to `O=C(O)c1ccc(CN2CCCCC2)o1`, the Kd is > 4 mM (inactive).

`Cc1cc(NC(=O)c2cc(C)on2)no1`: the Kd was > 4 mM (inactive). As to `COc1ccc(/C=C2\SC(N)=NC2=O)cc1`, the Kd is > 4 mM (inactive).

As for `Cc1cc(C(=O)Nc2cccnc2)no1`, the Kd was > 4 mM (inactive).

Take `O=C(c1ccco1)N1CCNCC1`: the Kd is > 4 mM (inactive). With `CCC(C)OC1CCS(=O)(=O)C1` (stereo not drawn), the Kd is > 4 mM (inactive). Take `Cc1cc(=O)n2ncn(Cc3ccccc3)c2n1`: the Kd is > 4 mM (inactive). Under `NC(=O)C1CCN(c2nccc(C(F)(F)F)n2)CC1` stands > 4 mM (inactive).

Consider `Cc1cc(C(=O)N2CCOCC2)c(C)o1`, for which the Kd is > 4 mM (inactive). With `O=C(NCc1cccc2ccccc12)c1cccs1` the figure was less than 0.2 mM. Under `CC(=O)O[C@H]1CCC2(C)C3=C(CCC2C1(C)C)[C@]1(C)CCC(C(C)CCC=C(C)C)[C@@]1(C)CC3` (stereo partly drawn) stands > 4 mM (inactive); under `COc1ccccc1NS(=O)(=O)c1c[nH]c(=O)[nH]c1=O`, > 4 mM (inactive).

With `CCOC(=O)c1c[nH]c2c(F)cccc2c1=O`, the Kd is > 4 mM (inactive). With `COc1ccc2nc(N)sc2n1` the figure was > 4 mM (inactive); with `O=C(O)C1CC(=O)N(Cc2ccc(F)cc2)C1` (stereo not drawn), > 4 mM (inactive); with `CCOC(=O)C1CN(C)CCN1C` (stereo not drawn), > 4 mM (inactive). Turning to `Cc1nnc(SCC(=O)NCc2ccccc2)[nH]c1=O`, the Kd is > 4 mM (inactive). Under `Cn1c(=O)n(CC(=O)N2CCOCC2)c2ccccc21` stands > 4 mM (inactive). Under `C=C[C@@](C)(O)CCC1C(=C)C[C@H](O)C2C(C)(C)CCCC12C` (stereo partly drawn) stands > 4 mM (inactive); under `O=c1c2ccccc2nc2n1CCS2`, > 4 mM (inactive); under `Cc1ccc2[nH]cc(CCN)c2c1`, > 4 mM (inactive). Take `O=S1(=O)CCC(NCCO)C1` (stereo not drawn): the Kd was > 4 mM (inactive).

With `Cc1occc1C(=O)Nc1nnc(C(F)(F)F)s1`, the Kd was > 4 mM (inactive). With `O=C1C2C3C=CC(C3)C2C(=O)N1c1nccs1` (stereo not drawn) the figure was > 4 mM (inactive); with `CC(=O)CNc1cc(CNC(C)=O)c(C)cc1C`, > 4 mM (inactive). For `Cc1c(N=Cc2ccc[nH]2)c(=O)n(-c2ccccc2)n1C`, the Kd is > 4 mM (inactive).

On to `CC(C)=CC1C(C(=O)O)C1(C)C` (stereo not drawn), for which the Kd was > 4 mM (inactive).

As for `CN(C)C(=O)Nc1ccc2c(c1)nnn2C`, the Kd was > 4 mM (inactive). With `Cc1cc(=O)n2[nH]cnc2n1` the figure was > 4 mM (inactive); with `COc1cccc(-c2nc(-c3ccccn3)no2)c1OC`, > 4 mM (inactive). With `CC(=O)c1cccc(NC2=NCC(C)(C)S2)c1` the figure was > 4 mM (inactive); with `O=C1CS/C(=N/S(=O)(=O)c2ccccc2)N1`, > 4 mM (inactive); with `Nc1cccc2nsnc12`, > 4 mM (inactive). Under `O=C(O)c1ccnc2ccccc12` stands > 4 mM (inactive).

On to `Cn1c([O-])c([N+](C)(C)C)c(=O)n(C)c1=O`, for which the Kd was > 4 mM (inactive). Under `Cc1nnc(NC(=O)C(C)Sc2nncn2C)s1` (stereo not drawn) stands > 4 mM (inactive). With `O=C(O)CS(=O)(=O)c1ccccc1[N+](=O)[O-]` the figure was > 4 mM (inactive); with `Nc1cccnc1Oc1ccc(F)cc1F`, > 4 mM (inactive); with `CN(C)c1nc(N2CCOCC2)c2cnn(C)c2n1`, > 4 mM (inactive). With `CCN1CCN(c2ncnc3c2nnn3C)CC1` the figure was > 4 mM (inactive). Consider `COc1ccccc1NC(=O)c1ccc(Br)o1`, for which the Kd is > 4 mM (inactive). With `Cc1ccc(/C=C2/NC(=S)NC2=O)s1` the figure was > 4 mM (inactive); with `COC[C@]12CN(C=O)C3[C@@H]4[C@H](OC)C1[C@]3(C1CC3(O)C(OC)C(O)C4(OC(C)=O)C1C3OC(=O)c1ccccc1)[C@@H](OC)C[C@H]2O` (stereo partly drawn), > 4 mM (inactive). With `C[C@H]1[C@H](C)CC[C@]2(CO)CC[C@]3(C)C(=CCC4[C@@]5(C)CC[C@H](O)C(C)(C)C5CC[C@]43C)[C@H]12` (stereo partly drawn) the figure was > 4 mM (inactive); with `CC(C)=CCc1c2c(c3occ(-c4ccc(O)c(O)c4)c(=O)c3c1O)C=CC(C)(C)O2`, > 4 mM (inactive). Regarding `O=C1CS/C(=N/N=C/c2cccs2)N1`, the Kd was > 4 mM (inactive). For the molecule `Cc1nnc(SCc2ccon2)n1-c1ccccc1`, the Kd was > 4 mM (inactive). With `Oc1ccc(C2SCCS2)cc1` the figure was > 4 mM (inactive); with `CC(C)[C@@H]1CC[C@@H](C)C[C@H]1OC(=O)c1ccccc1`, > 4 mM (inactive). Under `COC(=O)c1ccccc1NC(=O)c1cc[n+]([O-])cc1` stands > 4 mM (inactive). Under `Cn1c(SCCC(=O)O)nnc1-c1cccnc1` stands > 4 mM (inactive); under `COCc1cc(=O)oc2cc(N)ccc12`, > 4 mM (inactive); under `Cc1cc(=O)oc2cc(O)c(O)cc12`, > 4 mM (inactive). For the molecule `COc1ccc(-c2cc3nc4n(c(=O)c3s2)CCC4)cc1`, the Kd was > 4 mM (inactive). Turning to `C(=C\c1ccccc1)/C=N/n1cnnc1`, the Kd was > 4 mM (inactive). Under `CC(=O)N1CC2(C)CN(C(C)=O)CC(C)(C1)C2O` (stereo not drawn) stands > 4 mM (inactive). With `COCc1cc(Cl)nc(-c2csc(C)n2)n1` the figure was > 4 mM (inactive). Turning to `Fc1cccc(Cl)c1CN1CCNCC1`, the Kd was > 4 mM (inactive). With `COc1cc(-c2nnc(NC(C)=O)o2)cc(OC)c1OC` the figure was > 4 mM (inactive); with `CCn1c(C)c(C(C)=O)c(N2CCN(C)CC2)nc1=S`, > 4 mM (inactive); with `CC(C)=CCCC1(C)C=Cc2c(O)c3c(c(CC=C(C)C)c2O1)OC12C(=CC4CC1C(C)(C)OC2(C/C=C(/C)C(=O)O)C4=O)C3=O` (stereo not drawn), > 4 mM (inactive). Take `COc1ccc(S(=O)(=O)N2CCOCC2)cc1C(C)C`: the Kd is > 4 mM (inactive).

In the case of `CN1CCN(C(=S)c2ccc(N(C)C)cc2)CC1`, the Kd is > 4 mM (inactive).

Turning to `COC(=O)c1ccc(N2CCOCC2)nc1`, the Kd is > 4 mM (inactive). Consider `COc1ccc(-c2cc(=O)c3c(O)c(OC)c(O[C@H]4O[C@H](CO[C@@H]5O[C@@H](C)[C@H](O)[C@@H](O)[C@H]5O)[C@@H](O)[C@H](O)[C@H]4O)cc3o2)cc1`, for which the Kd was > 4 mM (inactive). With `S=c1nc[nH]c2c1cnn2-c1ccccc1` the figure was > 4 mM (inactive); with `CC(=O)Nc1ccc(-c2cn3ccsc3n2)cc1`, > 4 mM (inactive). Under `NC(=O)c1ccsc1NC(=O)c1ccccc1[N+](=O)[O-]` stands > 4 mM (inactive).

As to `Cc1nnc(NCCCO)[nH]c1=O`, the Kd is > 4 mM (inactive).

Turning to `c1ccc(-c2csc(Nc3cccnc3)n2)nc1`, the Kd is > 4 mM (inactive). Under `Nc1nc(NCc2ccco2)nn1-c1ccccc1` stands > 4 mM (inactive). With `O=c1[nH]nc(Cc2ccccn2)c2ccccc12` the figure was > 4 mM (inactive). Under `Cn1c(SCC(N)=O)nnc1-c1cccnc1` stands > 4 mM (inactive). As to `COc1ccccc1NC(C)=O`, the Kd is > 4 mM (inactive). With `O=C(c1ccncc1)N1CCN(C(=O)c2ccncc2)CC1` the figure was > 4 mM (inactive); with `CCOC(=O)C(C)c1n[nH]c(=O)c2ccccc12` (stereo not drawn), > 4 mM (inactive).

For the molecule `COc1cccc(O)c1O`, the Kd is > 4 mM (inactive). With `O=C(O)C1=Cc2ccccc2OC1` the figure was > 4 mM (inactive); with `NC(=O)CSCc1c(Cl)cccc1Cl`, > 4 mM (inactive); with `Nc1nnc(-c2ccncc2)s1`, > 4 mM (inactive).

For the molecule `COC(=O)CCSCC(=O)Nc1nccs1`, the Kd was > 4 mM (inactive).

Consider `OC[C@H]1O[C@@H](Oc2ccc(O)cc2)[C@H](O)[C@@H](O)[C@@H]1O`, for which the Kd was > 4 mM (inactive). With `O=c1[nH]oc2ccccc12` the figure was > 4 mM (inactive); with `COC(=O)C1[C@H]2C[C@H]3c4[nH]c5ccccc5c4CCN3C[C@@H]2CC[C@@H]1O` (stereo partly drawn), > 4 mM (inactive); with `COc1ccc(C[C@H]2NC[C@H](O)[C@H]2OC(C)=O)cc1`, > 4 mM (inactive). In the case of `CCOC(=O)c1cc(C)n(-n2cnnc2)c1C`, the Kd was > 4 mM (inactive). Take `CCOC(=O)c1ccc(Oc2ccc(C)nn2)cc1`: the Kd was > 4 mM (inactive). Under `CCC(=O)Nc1ccc(-c2nn3c(C)nnc3s2)cc1` stands > 4 mM (inactive); under `CCOC(=O)Cn1cnc2c1c(=O)[nH]c(=O)n2C`, > 4 mM (inactive). Under `C=CCCCCCCCCCCCc1ccco1` stands > 4 mM (inactive). With `O=C1c2cccnc2C(=O)N1Cc1ccc2c(c1)OCO2` the figure was > 4 mM (inactive).

`CC(Sc1ncn[nH]1)C(=O)O` (stereo not drawn): the Kd is > 4 mM (inactive). In the case of `COC(=O)c1c(C)cc(OC(=O)c2c(C)cc(O)c(C=O)c2O)c(C)c1O`, the Kd was > 4 mM (inactive). Under `O=C(O)CCC(=O)Nc1ccccn1` stands > 4 mM (inactive). Under `O=C(c1ccccc1F)N1CCN(c2ccccc2)CC1` stands > 4 mM (inactive).

Take `COc1c(C)c2c(c(O)c1C/C=C(\C)CCC(=O)O)C(=O)OC2`: the Kd is > 4 mM (inactive).

Turning to `CN1CCC(N2CCOCC2)CC1`, the Kd was > 4 mM (inactive). `Cc1cc(Oc2ccccc2)nc(N)n1`: the Kd was > 4 mM (inactive).

`CCOC(=O)N1CCCC1c1cccnc1` (stereo not drawn): the Kd is > 4 mM (inactive).
